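Interpolation was linear, between the two tested concentrations surrounding the appropriate level; five concentrations were tested over 48 hours in 96-well plates. The concentration for 50% growth inhibition is given as GI50. TGI marks complete inhibition of growth.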
Columns and labels:
Experiment in all cases: growth of human tumour cells (NCI), 48 h
RPMI-8226 leukemia = system: RPMI-8226 leukemia
DMS 114 small cell lung = system: DMS 114 small cell lung
M14 melanoma = system: M14 melanoma
NCI-H522 lung = system: NCI-H522 lung
HCC-2998 colon = system: HCC-2998 colon
HL-60(TB) leukemia = system: HL-60(TB) leukemia
HOP-62 NSCLC = system: HOP-62 NSCLC
786-0 renal = system: 786-0 renal
DLD-1 colon = system: DLD-1 colon
BT-549 breast = system: BT-549 breast

Compound	TGI (RPMI-8226 leukemia)	TGI (DMS 114 small cell lung)	TGI (M14 melanoma)	TGI (NCI-H522 lung)	TGI (HCC-2998 colon)	TGI (HL-60(TB) leukemia)	TGI (HOP-62 NSCLC)	TGI (786-0 renal)	TGI (DLD-1 colon)	GI50 (RPMI-8226 leukemia)	GI50 (BT-549 breast)	TGI (BT-549 breast)	GI50 (M14 melanoma)	GI50 (NCI-H522 lung)	GI50 (HCC-2998 colon)	GI50 (HL-60(TB) leukemia)	GI50 (HOP-62 NSCLC)	GI50 (786-0 renal)
Cc1cc(N(CCC#N)CCC#N)ccc1/C=C1/N=C(c2ccccc2)N(N)C1=O	> 100 µM	> 100 µM	> 100 µM	92.1 µM	> 100 µM	> 100 µM	> 100 µM	> 100 µM	> 100 µM									
CC1CN1c1c(C(=O)/C=C/c2ccccc2)c(-c2ccccc2)nn(C)c1=O (configuration not stated)		43.8 µM	32.8 µM	26.2 µM	29.9 µM	49.7 µM	46.3 µM	30.6 µM	34.5 µM									
CNS(=O)(=O)NNS(=O)(=O)c1ccc(Cl)cc1	> 100 µM	> 100 µM	> 100 µM	> 100 µM	> 100 µM	> 100 µM	> 100 µM	> 100 µM	> 100 µM									
CCCCCCN(N)C(=O)CC#N	58.5 µM	> 100 µM	> 100 µM	> 100 µM	> 100 µM		> 100 µM	> 100 µM	> 100 µM									
CCOC1=C2N=C(Cc3ccccc3F)N=C2C(=O)c2ccccc21	> 100 µM	> 100 µM	> 100 µM	> 100 µM	> 100 µM	> 100 µM	> 100 µM	> 100 µM	> 100 µM									
CN(C)CCC(/C=C/c1ccccc1)=N\Nc1ccc(Cl)cc1Cl	30.1 µM	29.5 µM	26.6 µM	30.6 µM		16.7 µM	27.9 µM	26.1 µM	27.9 µM									
CN1COc2c(n(C)c(=O)[nH]c2=O)C1	90.8 µM	> 100 µM	> 100 µM	> 100 µM	> 100 µM	> 80.3 µM	> 100 µM	> 100 µM	> 100 µM									
c1ccc(P(=Nc2ccccc2N=P(c2ccccc2)(c2ccccc2)c2ccccc2)(c2ccccc2)c2ccccc2)cc1	12.6 µM	2.68 µM	15.7 µM	2.24 µM	12.8 µM	3.43 µM	2.73 µM	11.3 µM	13 µM									
O=C(O)/C(Cl)=C(\Cl)C(=O)Nc1ccc(Cl)c(Cl)c1Cl	88.3 µM	35.1 µM	32.5 µM	23.7 µM	35.1 µM	45.4 µM	62.3 µM	32.1 µM	47.3 µM									
COc1cc(-c2cc(-c3cc([N+](=O)[O-])c(/C=N/NC(=O)c4ccncc4)o3)ccc2OC)ccc1C	> 100 µM		> 100 µM	> 100 µM	> 100 µM		> 100 µM	> 100 µM	> 100 µM									
COc1ccc(C(Cl)=C(c2ccc(OCCN(C)C)cc2)c2ccc(OCCN(C)C)cc2)cc1	3.83 µM	3.06 µM	2.92 µM	3.01 µM	7.35 µM	3.65 µM	10.4 µM	2.53 µM	11.3 µM									
CC1(C)C2CCC13CS(=O)(=O)N1O[C@]13C(=O)O2 (some centres not stated)	> 100 µM	> 100 µM		> 100 µM	> 100 µM	> 100 µM	> 100 µM	> 100 µM	> 100 µM									
CN1CCN(Cc2ccc(NC(=O)c3[nH]ncc3Nc3ncnc4sc5c(c34)CCCC5)cc2)CC1	1.04 µM		1.64 µM	1.08 µM	2.07 µM	0.804 µM	1.45 µM	1.9 µM		0.37 µM	1.23 µM	2.65 µM	0.324 µM	0.241 µM	0.535 µM	0.269 µM	0.286 µM	0.365 µM
Cc1nc2ccccc2c(/C=C/c2ccc(Br)cc2)c1C(=O)/C=C/c1ccccc1	5.1 µM		4.48 µM	3.04 µM	3.54 µM	5.27 µM	3.4 µM	3.18 µM		1.38 µM	1.86 µM	4.49 µM	1.85 µM	1.42 µM	1.8 µM	2.17 µM	1.76 µM	1.64 µM
CSC(=S)N/N=C(\C)c1cccc(C)n1	1.51 µM		1.6 µM	3.01 µM	30.4 µM	3.07 µM	6.98 µM	28 µM				57.7 µM						
C#CCOc1cccc(Nc2ncnc3c(NC(=O)CCl)cccc23)c1	43.9 µM		54.5 µM	29.3 µM	34 µM	40.6 µM	86.3 µM	37.9 µM		20.9 µM	19.3 µM	62.5 µM	18.2 µM	13.6 µM	17.7 µM	17.5 µM	25.8 µM	18.7 µM
Cn1c2ccccc2n2c(=O)c3c(c(C#N)c12)CCCC3	> 100 µM	> 100 µM	> 100 µM		> 100 µM	> 100 µM	> 100 µM	> 100 µM	> 100 µM									
CC(C)(C)c1ccc(C(=O)Nc2sc3c(c2C(N)=O)CCC(=O)C3)cc1	0.581 µM		1.57 µM	1.91 µM	4.22 µM	4.82 µM	6.62 µM	5.07 µM		0.158 µM	0.356 µM	1.56 µM	0.413 µM	0.318 µM	1.97 µM	0.481 µM	2.38 µM	1.86 µM
CC(C)c1c2[nH]c3ccccc3c2c(C(C)C)c2[nH]c3ccccc3c12	> 100 µM	> 100 µM	> 100 µM	> 100 µM	> 100 µM	> 62.5 µM	> 100 µM	> 100 µM	> 100 µM									
COc1ccc(C2[C@@H](Cl)C(=O)N2c2cc(OC)c(OC)c(OC)c2)cc1Cl (some centres not stated)	3.47 µM		0.712 µM	0.296 µM	17.6 µM	0.463 µM	> 100 µM	10.1 µM		0.279 µM	0.102 µM	0.61 µM	0.0773 µM	0.0353 µM	0.41 µM	0.175 µM	0.18 µM	0.0389 µM

— PubChem BioAssay (NCI)
